The values that follow come from EP1707568A2, “A pharmaceutical composition for use in the treatment of ovarian cancer in a human afflicted therewith” (SMITHKLINE BEECHAM CORPORATION, priority 1991, dated 1992).

Read-outs that look alike come from different tables or passages of the source. Bounds are passed on as bounds.

One series concerns ovarian cancer. Put plainly: Clinical treatment of a platinum-refractory ovarian cancer patient, tumor size evaluated by CAT scan. As to conditions: one human patient, intravenous 1.5 mg/m^2 per day for five consecutive days. Type of series: in vivo. How it is done: One human patient with ovarian cancer, who was refractory to two previous platinum-containing regimens (i.e., cisplatin-cyclophosphamide combination regimen and treatment with single agent carboplatin), received a course of therapy comprising intravenous administration of 1.5 mg of topotecan/m^2 of body surface area per day for five consecutive days. This course of therapy was repeated […] nine more times to date at twenty-one day intervals (from the date of initiation of therapy) for a total of ten treatments. Tumor size regression was evaluated by CAT (computerized axial tomography) scan. […] At least until the tenth treatment, this clinically significant response was sustained, i.e., a greater than fifty percent (50%) tumor size regression was obtained.

Series [1] is described as follows: Hang-bag stability of topotecan diluted in saline or dextrose. To be noted: read-out: recovery. The series is classed as physicochemical. As for the experimental part: Topotecan diluted in saline (10 ug/ml or 500 ug/ml) or dextrose (6.7 ug/ml or 330 ug/ml) is stable in a hang-bag for 24 hours with at least 95% recovery.
The nature of series [2]: Stability of reconstituted topotecan solution further diluted in D5W or NS in plastic bags at room temperature. The series is classed as physicochemical. As to conditions: for Percentage of Initial Topotecan Remaining in Solution: 0 hrs; for remaining at 6 h / remaining at 24 h / remaining at 48 h: read-out: Percentage of Initial Topotecan Remaining in Solution. As for the experimental part: Topotecan is currently undergoing Phase I clinical investigation. The following pharmaceutical information is being supplied to the clinicians: • How supplied - As a vial containing 5 mg (of the base) with 100 mg mannitol. The pH is adjusted to 3.0 with HCl/NaOH. Lyophilized powder is light yellow in color. Intact vials should be stored under refrigeration (2-8 degrees Centigrade). • Solution Preparation -When the 5 mg vial is reconstituted with 2 ml of Sterile Water for Injection, USP, each ml will contain 2.5 mg of topotecan as the base and 50 mg of mannitol, USP. Topotecan must not be diluted or mixed with buffered solutions because of solubility and stability considerations. • Stability - Shelf life surveillance of the intact vials is ongoing. Because the single-use lyophilized dosage form contains no antibacterial preservatives, it is advised that the reconstituted solution be discarded eight hours after initial entry into the vial. Futher dilutions of the reconstituted solution to concentrations of 0.02 mg/ml and 0.1 mg/ml in 5% Dextrose Injection, USP, ("D5W") or 0.9% Sodium Chloride Injection, USP, ("NS") in plastic bags stored at room temperature yielded the following stability results:
Percentage of Initial Topotecan Remaining in Solution

On to `CC[C@@]1(O)C(=O)OCc2c1cc1n(c2=O)Cc2cc3c(CN(C)C)c(O)ccc3nc2-1` [Topotecan, (S)-9-dimethylaminomethyl-10-hydroxycamptothecin], for which the Tumor size regression entry is on record as “An even greater response was observed” with ovarian cancer (following four courses), “Tumor size regression was observed” in the series on ovarian cancer (following two courses of therapy) and greater than 50% in the series on ovarian cancer (sustained at least until the tenth treatment). For the same compound, the remaining at 24 h in series [1] (dextrose, 6.7 ug/ml) is no less than 95%; in series [1] (saline, 10 ug/ml), no less than 95%; in series [2] (d5w, 0.02 mg/ml), 102%; in series [2] (d5w, 0.1 mg/ml), 98.2%; in series [2] (ns, 0.02 mg/ml), 96%; in series [2] (ns, 0.1 mg/ml), 98.3%. Moreover, the “Percentage of Initial Topotecan Remaining in Solution” value was 100.00% in series [2] (D5W, 0.02 mg/ml); 100.00% in series [2] (D5W, 0.1 mg/ml); 100.00% in series [2] (NS, 0.02 mg/ml); 100.00% in series [2] (NS, 0.1 mg/ml). Besides, the remaining at 6 h came to 99.3% in series [2] (d5w, 0.02 mg/ml); 99.7% in series [2] (d5w, 0.1 mg/ml); 98.6% in series [2] (ns, 0.02 mg/ml); 97.7% in series [2] (ns, 0.1 mg/ml). Further, the remaining at 48 h came to 102% in series [2] (d5w, 0.02 mg/ml); 97.9% in series [2] (d5w, 0.1 mg/ml); 102% in series [2] (ns, 0.02 mg/ml); 98.3% in series [2] (ns, 0.1 mg/ml).
